Source: PMC8274517, “Diaryl azo derivatives as anti-diabetic and antimicrobial agents: synthesis, in vitro, kinetic and docking studies” (Journal of Enzyme Inhibition and Medicinal Chemistry, 2021)
Values after ≈ are worked out from the molar mass of the structure shown.

Key:
S. aureus (DR) = assay: Antibacterial activity, minimum inhibitory concentration; type: cell-based; design: key: R: resistant; S: sensitive
Method: (§1) The prepared azo derivatives were screened for their antibacterial activity against six bacterial strains obtained from hospital isolates i.e. gram positive (S. aureus, S. aureus (DR)) and gram-negative (E. coli, P. aeruginosa, P. aeruginosa (DR), P. vulgaris). All the strains were confirmed by biochemical identification and drug susceptibility methods. The antibacterial evaluation was done by agar disc diffusion method[39]^,[40] and MIC was determined. In summary, a 48-h old inoculum having ∼0.48 OD600, of the above-mentioned bacterial strains was spread on the solidified trypticase soy agar media and Whatman no. 1 filter paper discs (5 mm in diameter) soaked with the title compounds (10 µL/disc of 10 mg/mL) were placed on the plates. Ampicillin and moxifloxacin were used as positive controls and DMSO as negative control respectively.

S. aureus (DS) = assay: as above; type: cell-based; design: key: R: resistant; S: sensitive
Method: as §1

P. vulgaris = assay: as above; type: cell-based; design: key: R: resistant; S: sensitive
Method: as §1

P. aeruginosa (DS) = assay: as above; type: cell-based; design: key: R: resistant; S: sensitive
Method: as §1

P. aeruginosa (DR) = assay: as above; type: cell-based; design: key: R: resistant; S: sensitive
Method: as §1

E. coli = assay: as above; type: cell-based; design: key: R: resistant; S: sensitive
Method: as §1

α-glucosidase = assay: In vitro α-glucosidase inhibition assay (pNPG substrate); type: biochemical, Saccharomyces Cerevisiae; conditions: for IC50: means ± SEM of triplicate
Method: The α-glucosidase inhibition assay was performed as described previously. In summary, the stock solution of the enzyme from Saccharomyces Cerevisiae (0.2 U/mL) was prepared in 0.05 M sodium phosphate buffer pH 6.8. […] After incubation, 10 µL of the substrate, p-nitrophenyl α-D-glucopyranoside (pNPG, 5 mM solution in 0.05 M phosphate buffer) was added to the aboveprepared mixture and incubated again under the same experimental conditions. The reaction was stopped with the addition of 0.1 M Na2CO3 and OD405 was taken by a 96-well ELISA reader. The experiment was performed in triplicate.

[1] = test system: screened pathogens (S. aureus, P. aeruginosa, E. coli and P. vulgaris); assay: Antibacterial activity, average MIC over screened pathogens; type: cell-based
Method: as §1, with “All the strains were confirmed by biochemical identification and drug susceptibility methods.” left out, “plates.” for “plates. Ampicillin and moxifloxacin were used as positive controls and DMSO as negative control respectively.”

With “4-((2-chloropyridin-3-yl)diazenyl)naphthalen-2-ol [TR-9]” the “Minimum inhibitory concentration: sensitive/resistant” value (S. aureus (DR); 125 µg/200 µL) was “S”, the “Minimum inhibitory concentration: sensitive/resistant” value (S. aureus (DR); 250 µg/200 µL) was “S” and the “Minimum inhibitory concentration: sensitive/resistant” value (S. aureus (DS); 125 µg/200 µL) was “R”. The “Minimum inhibitory concentration: sensitive/resistant” value (S. aureus (DS); 250 µg/200 µL) was “R”, the “Minimum inhibitory concentration: sensitive/resistant” value (P. vulgaris; 125 µg/200 µL) was “R” and the “Minimum inhibitory concentration: sensitive/resistant” value (P. vulgaris; 250 µg/200 µL) was “R”. The “Minimum inhibitory concentration: sensitive/resistant” value (P. aeruginosa (DS); 125 µg/200 µL) was “R”, the “Minimum inhibitory concentration: sensitive/resistant” value (P. aeruginosa (DS); 250 µg/200 µL) was “S” and the “Minimum inhibitory concentration: sensitive/resistant” value (P. aeruginosa (DR); 125 µg/200 µL) was “R”. The “Minimum inhibitory concentration: sensitive/resistant” value (P. aeruginosa (DR); 250 µg/200 µL) was “R”, the “Minimum inhibitory concentration: sensitive/resistant” value (E. coli; 125 µg/200 µL) was “R” and the “Minimum inhibitory concentration: sensitive/resistant” value (E. coli; 250 µg/200 µL) was “R”. The “% Inhibition” value (α-glucosidase; 15.62 µg/mL) was 22%, the “% Inhibition” value (α-glucosidase; 31.2 µg/mL) was 39% and the “% Inhibition” value (α-glucosidase; 125 µg/mL) was 63%. For the same compound, the “% Inhibition” value (α-glucosidase; 250 µg/mL) was 78% and the IC50 (α-glucosidase) was 54.4 ± 3.3 µg/mL.
With `C[C@H]1O[C@H](O[C@H]2[C@H](O)[C@@H](O)[C@@H](O[C@H]3[C@H](O)[C@@H](O)C(O)O[C@@H]3CO)O[C@@H]2CO)[C@H](O)[C@@H](O)[C@@H]1N[C@H]1C=C(CO)[C@@H](O)[C@H](O)[C@H]1O` (stereo partly drawn) [Acarbose, reference compound] the “% Inhibition” value (α-glucosidase; 15.62 µg/mL) was 40%, the “% Inhibition” value (α-glucosidase; 31.2 µg/mL) was 62% and the “% Inhibition” value (α-glucosidase; 125 µg/mL) was 85%. For the same compound, the “% Inhibition” value (α-glucosidase; 250 µg/mL) was 92%.
`CC1(C)S[C@@H]2[C@H](NC(=O)[C@H](N)c3ccccc3)C(=O)N2[C@H]1C(=O)O` [Ampicillin, reference compound] was tested, and the “Minimum inhibitory concentration: sensitive/resistant” value (S. aureus (DS); 125 µg/200 µL) was “S”, the “Minimum inhibitory concentration: sensitive/resistant” value (S. aureus (DS); 250 µg/200 µL) was “S” and the “Minimum inhibitory concentration: sensitive/resistant” value (P. vulgaris; 125 µg/200 µL) was “S”. For the same compound, the “Minimum inhibitory concentration: sensitive/resistant” value (P. vulgaris; 250 µg/200 µL) was “S”, the “Minimum inhibitory concentration: sensitive/resistant” value (P. aeruginosa (DS); 125 µg/200 µL) was “S” and the “Minimum inhibitory concentration: sensitive/resistant” value (P. aeruginosa (DS); 250 µg/200 µL) was “S”. The “Minimum inhibitory concentration: sensitive/resistant” value (E. coli; 125 µg/200 µL) was “S”, the “Minimum inhibitory concentration: sensitive/resistant” value (E. coli; 250 µg/200 µL) was “S” and the “MIC (average value)” value [1] was 62.5 µg/200 µL.
For `COc1c(N2C[C@@H]3CCCN[C@@H]3C2)c(F)cc2c(=O)c(C(=O)O)cn(C3CC3)c12` [Moxifloxacin, reference compound], the “Minimum inhibitory concentration: sensitive/resistant” value (S. aureus (DR); 125 µg/200 µL) was “S”, the “Minimum inhibitory concentration: sensitive/resistant” value (S. aureus (DR); 250 µg/200 µL) was “S” and the “Minimum inhibitory concentration: sensitive/resistant” value (P. aeruginosa (DR); 125 µg/200 µL) was “S”. The “Minimum inhibitory concentration: sensitive/resistant” value (P. aeruginosa (DR); 250 µg/200 µL) was “S”.
For `O=[N+]([O-])c1ccc(/N=N/c2ccc(O)c3ccccc23)cc1` [TR-2, (E)-4-((4-nitrophenyl)diazenyl)naphthalen-1-ol], the “Minimum inhibitory concentration: sensitive/resistant” value (S. aureus (DR); 125 µg/200 µL) was “S”, the “Minimum inhibitory concentration: sensitive/resistant” value (S. aureus (DR); 250 µg/200 µL) was “S” and the “Minimum inhibitory concentration: sensitive/resistant” value (S. aureus (DS); 125 µg/200 µL) was “R”. The “Minimum inhibitory concentration: sensitive/resistant” value (S. aureus (DS); 250 µg/200 µL) was “R”, the “Minimum inhibitory concentration: sensitive/resistant” value (P. vulgaris; 125 µg/200 µL) was “R” and the “Minimum inhibitory concentration: sensitive/resistant” value (P. vulgaris; 250 µg/200 µL) was “R”. The “Minimum inhibitory concentration: sensitive/resistant” value (P. aeruginosa (DS); 125 µg/200 µL) was “R”, the “Minimum inhibitory concentration: sensitive/resistant” value (P. aeruginosa (DS); 250 µg/200 µL) was “S” and the “Minimum inhibitory concentration: sensitive/resistant” value (P. aeruginosa (DR); 125 µg/200 µL) was “R”. For the same compound, the “Minimum inhibitory concentration: sensitive/resistant” value (P. aeruginosa (DR); 250 µg/200 µL) was “R”, the “Minimum inhibitory concentration: sensitive/resistant” value (E. coli; 125 µg/200 µL) was “R” and the “Minimum inhibitory concentration: sensitive/resistant” value (E. coli; 250 µg/200 µL) was “S”. For the same compound, the “% Inhibition” value (α-glucosidase; 15.62 µg/mL) was 16%, the “% Inhibition” value (α-glucosidase; 31.2 µg/mL) was 30% and the “% Inhibition” value (α-glucosidase; 125 µg/mL) was 55%. For the same compound, the “% Inhibition” value (α-glucosidase; 250 µg/mL) was 60% and the IC50 (α-glucosidase) was 110.2 ± 7.8 µg/mL (≈ 376 µM).
In the case of “(E)-4-(p-tolyldiazenyl)benzene-1,3-diol [TR-6]”, the “Minimum inhibitory concentration: sensitive/resistant” value (S. aureus (DR); 125 µg/200 µL) was “S”, the “Minimum inhibitory concentration: sensitive/resistant” value (S. aureus (DR); 250 µg/200 µL) was “S” and the “Minimum inhibitory concentration: sensitive/resistant” value (S. aureus (DS); 125 µg/200 µL) was “S”. For the same compound, the “Minimum inhibitory concentration: sensitive/resistant” value (S. aureus (DS); 250 µg/200 µL) was “S”, the “Minimum inhibitory concentration: sensitive/resistant” value (P. vulgaris; 125 µg/200 µL) was “S” and the “Minimum inhibitory concentration: sensitive/resistant” value (P. vulgaris; 250 µg/200 µL) was “S”. For the same compound, the “Minimum inhibitory concentration: sensitive/resistant” value (P. aeruginosa (DS); 125 µg/200 µL) was “S”, the “Minimum inhibitory concentration: sensitive/resistant” value (P. aeruginosa (DS); 250 µg/200 µL) was “S” and the “Minimum inhibitory concentration: sensitive/resistant” value (P. aeruginosa (DR); 125 µg/200 µL) was “R”. For the same compound, the “Minimum inhibitory concentration: sensitive/resistant” value (P. aeruginosa (DR); 250 µg/200 µL) was “R”, the “Minimum inhibitory concentration: sensitive/resistant” value (E. coli; 125 µg/200 µL) was “R” and the “Minimum inhibitory concentration: sensitive/resistant” value (E. coli; 250 µg/200 µL) was “S”. The “MIC (average value)” value [1] was 125 µg/200 µL, the “% Inhibition” value (α-glucosidase; 15.62 µg/mL) was 22% and the “% Inhibition” value (α-glucosidase; 31.2 µg/mL) was 38%. The “% Inhibition” value (α-glucosidase; 125 µg/mL) was 63%, the “% Inhibition” value (α-glucosidase; 250 µg/mL) was 87% and the IC50 (α-glucosidase) was 53.7 ± 3.2 µg/mL.
